Results taken from patent US8487108B2, “Piperidinyl carbamate intermediates for the synthesis of aspartic protease inhibitors” (Vitae Pharmaceuticals, Inc., priority 2005, dated 2013).

molecular target: T1, trypsin-activated recombinant human renin (Homo sapiens, UniProt P00797); assay: Renin fluorescence assay (internally quenched peptide substrate); assay type: biochemical; details: compounds I*
T1 sequence (P00797 67-406): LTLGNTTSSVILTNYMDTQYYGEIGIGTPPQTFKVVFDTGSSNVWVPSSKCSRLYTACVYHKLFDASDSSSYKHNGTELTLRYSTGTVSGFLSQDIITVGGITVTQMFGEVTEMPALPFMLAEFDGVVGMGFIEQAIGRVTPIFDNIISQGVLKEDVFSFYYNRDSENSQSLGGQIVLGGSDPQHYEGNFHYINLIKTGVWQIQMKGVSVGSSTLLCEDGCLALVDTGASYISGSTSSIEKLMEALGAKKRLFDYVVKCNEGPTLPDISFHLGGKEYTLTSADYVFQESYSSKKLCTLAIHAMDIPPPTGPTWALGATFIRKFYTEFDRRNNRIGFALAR
Protocol: The sequence of this peptide corresponds to the sequence of human angiotensinogen. The following test protocol can be used. All reactions are carried out in a flat bottom white opaque microtiter plate. A 4 μL aliquot of 400 μM renin substrate (DABCYL-γ-[…]) in 192 μL assay buffer (50 mM BES, 150 mM NaCl, 0.25 mg/mL bovine serum albumin, pH7.0) is added to 4 μL of test compound in DMSO at various concentrations ranging from 10 μM to 1 nM final concentrations. Next, 100 μL of trypsin-activated recombinant human renin (final enzyme concentration of 0.2-2 nM) in assay buffer is added, and the solution is mixed by pipetting. The increase in fluorescence at 495 nm (excitation at 340 nm) is measured for 60-360 minutes at rt using a Perkin-Elmer Fusion microplate reader. The slope of a linear portion of the plot of fluorescence-increase as a function of time is then determined, and the rate is used for calculating percent inhibition in relation to uninhibited control. […] (Wang G. T. et al. Anal. Biochem. 1993, 210, 351; Nakamura, N. et al. J. Biochem. (Tokyo) 1991, 109, 741; Murakami, K. et al. Anal Biochem. 1981, 110, 232).

| SMILES | IC50 |
| --- | --- |
| CNC[C@H](CC1CCOCC1)NC(=O)N1CCC[C@@H]([C@@H](OCCNC(=O)OC)c2cc(F)ccc2C)C1 [I*-50a, methyl 2-((R)-(5-fluoro-2-methylphenyl)((R)-1-((S)-1-(methylamino)-3-(tetrahydro-2H-pyran-4-yl)propan-2-ylcarbamoyl)piperidin-3-yl)methoxy)ethylcarbamate] | < 0.01 µM |
| CNC[C@H](CC1CCC(O)CC1)NC(=O)N1CCC[C@@H]([C@@H](OCCNC(=O)OC)c2cccc(F)c2)C1 (stereo partly drawn) [I*-51a, methyl 2-((R)-(3-fluorophenyl)((R)-1-((S)-1-(4-hydroxycyclohexyl)-3-(methylamino)propan-2-ylcarbamoyl)piperidin-3-yl)methoxy)ethylcarbamate] | > 0.05 µM |
| CNC[C@H](CC1CCOCC1)NC(=O)N1CCC[C@@H]([C@@H](OCCNC(=O)OC)c2cc(C)cc(F)c2)C1 [I*-52a, methyl 2-((R)-(3-fluoro-5-methylphenyl)((R)-1-((S)-1-(methylamino)-3-(tetrahydro-2H-pyran-4-yl)propan-2-ylcarbamoyl)piperidin-3-yl)methoxy)ethylcarbamate] | < 0.01 µM |
| CNC[C@@H](NC(=O)N1CCC[C@@H]([C@@H](OCCNC(=O)OC)c2cc(F)ccc2C)C1)[C@@H](O)C1CCCC1 [I*-53a, methyl 2-((R)-((R)-1-((1S,2R)-1-cyclopentyl-1-hydroxy-3-(methylamino)propan-2-ylcarbamoyl)piperidin-3-yl)(5-fluoro-2-methylphenyl)methoxy)ethylcarbamate] | < 0.02 µM |
| CNCC(CC1CCCOC1)NC(=O)N1CCCC(C(O)(CCCNC(=O)OC)c2cccc(F)c2)C1 [I*-54a, methyl (S)-4-(3-fluorophenyl)-4-hydroxy-4-((3R)-1-((S)-1-(methylamino)-3-(tetrahydro-2H-pyran-3-yl)propan-2-ylcarbamoyl)piperidin-3-yl)butylcarbamate] | < 0.05 µM |
| CNC[C@H](C[C@H]1CCCCOC1)NC(=O)N1CCC[C@@H]([C@@H](OCCNC(=O)OC)c2cccc(F)c2)C1 [I*-55a, methyl 2-((R)-(3-fluorophenyl)((R)-1-((S)-1-(methylamino)-3-((R)-oxepan-3-yl)propan-2-ylcarbamoyl)piperidin-3-yl)methoxy)ethylcarbamate] | < 0.001 µM |
| CNC[C@H](C[C@H]1CCCOC1)NC(=O)N1CCCC[C@@H]([C@@H](OCCNC(=O)OC)c2cccc(F)c2)C1 [I*-56a, methyl 2-((R)-(3-fluorophenyl)((R)-1-((S)-1-(methylamino)-3-((R)-tetrahydro-2H-pyran-3-yl)propan-2-ylcarbamoyl)azepan-3-yl)methoxy)ethylcarbamate] | < 0.01 µM |
| CNC[C@H](C[C@H]1CCCCOC1)NC(=O)N1CCC[C@@H]([C@@H](OCCNC(=O)OC)c2ccccc2F)C1 [I*-57a, methyl 2-((1R)-(2-fluorophenyl)((3R)-1-(1-(methylamino)-3-((R)-oxepan-3-yl)propan-2-ylcarbamoyl)piperidin-3-yl)methoxy)ethylcarbamate] | < 0.01 µM |
| COC(=O)NCCO[C@@H](c1cc(F)ccc1C)[C@@H]1CCCN(C(=O)NC[C@@H](N)C[C@H]2CCCCOC2)C1 [I*-58a, methyl 2-((R)-((R)-1-((S)-2-amino-3-((R)-oxepan-3-yl)propylcarbamoyl)piperidin-3-yl)(5-fluoro-2-methylphenyl)methoxy)ethylcarbamate] | < 0.01 µM |
| COC(=O)NCCO[C@@H](c1cccc(Cl)c1)[C@@H]1CCCN(C(=O)N[C@](C)(CN)CC2CCCCC2)C1 [I*-59a, methyl 2-((R)-((R)-1-((S)-1-amino-3-cyclohexyl-2-methylpropan-2-ylcarbamoyl)piperidin-3-yl)(3-chlorophenyl)methoxy)ethylcarbamate] | < 0.01 µM |
| CNC[C@H](CC1CCCC1)NC(=O)N1CCC[C@@H]([C@@H](OCCNC(=O)OC)c2cc(Cl)ccc2C)C1 [I*-60a, methyl 2-((R)-(5-chloro-2-methylphenyl)((R)-1-((S)-1-cyclopentyl-3-(methylamino)propan-2-ylcarbamoyl)piperidin-3-yl)methoxy)ethylcarbamate] | < 0.001 µM |
| CCNC(=O)CO[C@@H](c1cccc(Cl)c1)[C@@H]1CCCN(C(=O)N[C@H](CNC)C[C@H]2CCCCOC2)C1 [I*-61a, (R)-3-((R)-(3-chlorophenyl)(2-(ethylamino)-2-oxoethoxy)methyl)-N-((2S)-1-(methylamino)-3-((R)-oxepan-3-yl)propan-2-yl)piperidine-1-carboxamide] | < 0.01 µM |
| CNC[C@H](CC1CCCCC1)NC(=O)N1CCC[C@@H]([C@@H](OCCNC(=O)OC)c2cc(F)ccc2F)C1 [I*-63a, methyl 2-((R)-((R)-1-((S)-1-cyclohexyl-3-(methylamino)propan-2-ylcarbamoyl)piperidin-3-yl)(2,5-difluorophenyl)methoxy)ethylcarbamate] | < 0.001 µM |
| CNC[C@H](CC1CCCCC1)NC(=O)N1CCC[C@@H]([C@@H](OCCNC(=O)OC)c2cc(F)cc(F)c2)C1 [I*-64a, methyl 2-((R)-((R)-1-((S)-1-cyclohexyl-3-(methylamino)propan-2-ylcarbamoyl)piperidin-3-yl)(3,5-difluorophenyl)methoxy)ethylcarbamate] | < 0.001 µM |
| CNC[C@H](CC1CCCCC1)NC(=O)N1CCC[C@@H]([C@@H](OCCNC(=O)OC)c2ccc(F)c(F)c2)C1 [I*-65a, methyl 2-((R)-((R)-1-((S)-1-cyclohexyl-3-(methylamino)propan-2-ylcarbamoyl)piperidin-3-yl)(3,4-difluorophenyl)methoxy)ethylcarbamate] | < 0.01 µM |
| CNC[C@@H](NC(=O)N1CCC[C@@H]([C@@H](OCCNC(=O)OC)c2cccc(Cl)c2)C1)[C@@H](O)C1CCCC1 [I*-67a, methyl 2-((R)-(3-chlorophenyl)((R)-1-((1S,2R)-1-cyclopentyl-1-hydroxy-3-(methylamino)propan-2-ylcarbamoyl)piperidin-3-yl)methoxy)ethylcarbamate] | < 0.01 µM |
| COC(=O)NCCO[C@@H](c1cccc(Cl)c1)[C@@H]1CCCN(C(=O)NC[C@@H](N)C[C@H]2CCCCOC2)C1 [I*-68a, methyl 2-((R)-((R)-1-((S)-2-amino-3-((R)-oxepan-3-yl)propylcarbamoyl)piperidin-3-yl)(3-chlorophenyl)methoxy)ethylcarbamate] | < 0.001 µM |
| CNC[C@H](CC1CCOCC1)NC(=O)N1CCC[C@@H]([C@@H](OCCNC(=O)OC)c2cc(F)ccc2F)C1 [I*-69a, methyl 2-((R)-(2,5-difluorophenyl)((R)-1-((S)-1-(methylamino)-3-(tetrahydro-2H-pyran-4-yl)propan-2-ylcarbamoyl)piperidin-3-yl)methoxy)ethylcarbamate] | < 0.05 µM |
| CNC[C@H](CC1CCOCC1)NC(=O)N1CCC[C@@H]([C@@H](OCCNC(=O)OC)c2cc(F)cc(F)c2)C1 [I*-70a, methyl 2-((R)-(3,5-difluorophenyl)((R)-1-((S)-1-(methylamino)-3-(tetrahydro-2H-pyran-4-yl)propan-2-ylcarbamoyl)piperidin-3-yl)methoxy)ethylcarbamate] | < 0.02 µM |
| CNC[C@H](CC1CCOCC1)NC(=O)N1CCC[C@@H]([C@@H](OCCNC(=O)OC)c2cccc(F)c2F)C1 [I*-71a, methyl 2-((R)-(2,3-difluorophenyl)((R)-1-((S)-1-(methylamino)-3-(tetrahydro-2H-pyran-4-yl)propan-2-ylcarbamoyl)piperidin-3-yl)methoxy)ethylcarbamate] | < 0.02 µM |
| CNC[C@@H](NC(=O)N1CCC[C@@H]([C@@H](OCCNC(=O)OC)c2cccc(F)c2F)C1)[C@@H](O)C1CCCC1 [I*-72a, methyl 2-((R)-((R)-1-((1S,2R)-1-cyclopentyl-1-hydroxy-3-(methylamino)propan-2-ylcarbamoyl)piperidin-3-yl)(2,3-difluorophenyl)methoxy)ethylcarbamate] | < 0.01 µM |
| COC(=O)NCCO[C@@H](c1cc(F)cc(F)c1)[C@@H]1CCCN(C(=O)NC[C@@H](N)C[C@H]2CCCCOC2)C1 [I*-73a, methyl 2-((R)-((R)-1-((S)-2-amino-3-((R)-oxepan-3-yl)propylcarbamoyl)piperidin-3-yl)(3,5-difluorophenyl)methoxy)ethylcarbamate] | < 0.01 µM |
| CNC[C@H](CC12CC3CC(CC1C3)C2)NC(=O)N1CCC[C@@H]([C@@H](OCCNC(=O)OC)c2ccccc2)C1 [I*-74a, methyl 2-((R)-((3R)-1-((S)-1-(3-noradamantyl)-3-(methylamino)propan-2-ylcarbamoyl)piperidin-3-yl)(phenyl)methoxy)ethylcarbamate] | < 0.02 µM |
